Measurements reported in patent US20150247149A1, “Detecting and Treating Liver Damage” (The Regents of the University of California, priority 2012, published 2015).

Assays:
HUVECs [1] = test: HUVEC tube formation assay; format: cell-based, human
Description: HUVECs (0.5-1×10^5 cells per well) were seeded onto a coated 24-well plate culture dishes with 200 μl/cm2 (thick gel method) of Matrigel (BD, Franklin Lakes, N.J., USA) and cultured in EBM-2 basal medium supplemented with 1.1% of streptomycin and penicillin in the presence of 100 ng/mL of VEGF (Peprotech, Rocky Hill, N.J., USA), hepatocytes-derived MPs, MP-free supernatant or conditioned supernatant collected after 24 hours of treatment with FFAs. In selective studies, a specific inhibitor for RhoA-ROCK (Y27632, 10 μM) was used in association with MPs in the treatment of endothelial cells. For the ex vivo studies, PFP isolated from different groups of mice (chow, HF/HCarb, MCD fed mice and mice injected with control RNA, VNN1 siRNA or PBS as vehicle) were ultracentrifuged at 100,000 g for 1 h at 10° C. to pellet the blood MPs. HUVECs were treated with MPs (or blood pure MPs) and incubated for 5 h at 37° C. Tube formation was investigated by using an inverted microscope at 4× magnification and images were captured. Tube formation image analysis was assessed by using Wimtube software (Wimasis, Munich, Germany) and the values referred to total tube length (pixel) were used for statistical and data analysis.

HUVECs [2] = test: HUVEC migration (Boyden's chamber chemotaxis, wound healing); format: cell-based, human
Description: In vitro migration studies have been performed by using human umbilical cell endothelial cells (HUVECs). Wound healing assay was performed to analyze chemokinesis (non-oriented migration) by using collagen-coated 6-well culture plate, where a silicon elastomer (PDMS) strip was placed vertically to the bottom of every well to create the artificial wound. HUVECs were plated and grown until reaching the complete confluence. HUVECs were treated with EBM-2 supplemented with 100 ng/mL of VEGF (Peprotech, Rocky Hill, N.J., USA), hepatocytes-derived MPs, MP-free supernatant or supernatant collected after 24 hours of treatment with FFAs. The strips were removed carefully and migration of cells was detected by a confocal microscope, capturing one picture per field every 10 minutes for 48 hours. Mitomycin (1 μg/ml) was used to inhibit cell proliferation during wound healing assay. Data were analyzed by using Wimscratch software (Wimasis, Munich, Germany) in order to get the total cell-covered area (pixel). Boyden's chamber assay was performed to analyze chemotaxis (oriented migration) by using cell culture inserts 8 μm pore size (Millipore, Billerica, Mass., USA) and 24-well plate. Each well was filled with 500 μl of serum free EBM-2 media in presence or absence of the following chemoattractants: 100 ng/mL VEGF; hepatocytes-derived MPs; MP-free supernatant or conditioned supernatant. The inserts were placed on top of each well and 150 μl of cell suspension (5×10^4 cells) was added. Plates were incubated overnight at 37° C., and then the filters were removed and stained with Vectashield mounting medium with 4′,6-diamino-2-phenylindole (DAPI) (Vector Labs, Burlingame, Calif., USA).
Migrated cells were detected with a fluorescence microscope and number per field of their nuclei was counted. For the ex vivo studies, PFP isolated from different groups of mice (chow, HF/HCarb, MCD fed mice and mice injected with control siRNA, VNN1 siRNA or PBS as vehicle) were ultracentrifuged at 100,000 g for 1 h at 10° C. to pellet the blood MPs.

HUVECs [3] = test: Internalization of microparticles into endothelial cells; format: cell-based, human; settings: HUVECs pre-treated with 10 mM MβCD 15 min or 2.5 μg/mL cav-1 nAb 30 min at 37° C., then MPs 6 h
Description: Internalization of hepatocyte-derived MPs into HUVECs and the role of VNN1 and lipid raft were evaluated by flow cytometry, indirect immunofluorescence and electron microscopy. To investigate the MPs internalization into HUVECs, by flow cytometry, MPs were stained with 1 μM of Calcein, AM (MPCalcein) (BD Biosciences), a fluorescent dye with an emission wavelength of 515 nm, for 1 h in the dark at 37° C. MPs were centrifuged twice with PBS for 30 minutes at 35,000 rpm and resuspended in 500 μL of EGM medium. To block MPs internalization, MPsCalcein were incubated with or without 4 μg/mL of rabbit polyclonal anti-VNN1 antibody (S3055; Epitomics, Burlingame, Calif., USA) for 30 minutes at RT. A rabbit anti-GAPDH antibody (Abcam, Cambridge, Mass., USA) was used as a control. […] Cells were trypsinized and FITC positive HUVECs were detected by BD LSRII Flow Cytometer System (BD) and counted. […]
The MPs suspension was incubated in the dark for 4 minutes, and then 2 mL of 1% BSA was added and kept for 1 minute to stop the reaction. […] HUVECs (4×10^3 cell per well) were seeded onto a 24-well plate and depletion of cholesterol was assessed by a treatment with 10 mM of Methyl-β-cyclodextrin (MβCD) in serum-free EBM-2 medium for 15 minutes at 37° C., followed by wash with fresh medium. […]

[4] = tested on: HepG2 and primary rat hepatocytes; test: Release of Annexin V-positive MPs from hepatocytes (flow cytometry); format: cell-based, human (HepG2); rat (primary hepatocytes); settings: palmitic acid-treated hepatocytes co-incubated with caspase 3 inhibitor (FIGS. 2E, 2G)
Description: For microparticles (MPs) isolation, HepG2 and primary rat hepatocytes were seeded onto a 100 mm dish and cultured until reaching 80-85% of confluence. Cells were incubated with 0.25 mM of palmitic, stearic, oleic or linoleic acid (FFA) in serum-free DMEM, supplemented with 1.1% penicillin and streptomycin, 1% endotoxin-free bovine serum albumin (BSA), for up to 24 h. […] The uptake of FFAs from hepatocytes was evaluated by Oil red-O staining kit (Cayman, Ann Arbor, Mich., USA) according to the manufacturer instruction. To determine the effect of caspase 3 activity, hepatocytes were treated with a selective caspase 3 inhibitor, Ac-DEVD-CHO (BD Pharmingen, Franklin Lakes, N.J., US). Control cells were incubated with the same serum-free media in association to the vehicle that was used to dissolve the FFAs. After 24 h, the supernatant were collected and centrifuged twice at 3,000 rpm for 15 minutes to remove cell debris and aggregates. The supernatant was then transferred to new tubes and ultracentrifuged at 100,000 g for 90 minutes at 10° C., to avoid contamination of exosomes.
The supernatant was collected in new tubes and used as a MP-free control and the pelleted MPs were resuspended in 200 μl of PBS for flow cytometry or in 500 μl of EGM-2 growth medium for subsequent in vitro studies. The concentration of microparticles μg/mL was determined by the BCA protein assay and different concentrations of MPs (50, 125, 250 and 500 μg/mL) were used to perform the dose-dependent angiogenesis in vitro assays. For selected purposes, in particular for the characterization analyses, crude MPs were purified by 10-70% sucrose gradient ultracentrifugation at 150,000 g for 18 h at 10° C., collected as fractions in new tubes. […]
Flow cytometry analyses for microparticles (or endothelial cells) detection were performed by using BD LSRII Flow Cytometer System (BD Biosciences, San Jose, Calif., USA) and the data were analyzed using FlowJo software (TreeStar Inc., Ashland, Oreg., USA). […]

[5] = HUVECs treated with MPs and Y27632, 10 μM

Compound: CCCCCCCCCCCCCCCCCC(=O)O [stearic acid]
- tube formation induced by cell-free supernatants of FFA-treated hepatocytes (HUVECs [1]; supernatants from HepG2/primary rat hepatocytes incubated with FFA up to 24 h, VEGF-A positive control): marked increase
- endothelial cell oriented (chemotaxis) and non-oriented migration induced by cell-free supernatants of FFA-treated hepatocytes (HUVECs [2]; supernatants from hepatocytes incubated with FFA up to 24 h, VEGF-A positive control): marked increase

Compound: C[C@@H](N)[C@H]1CC[C@H](C(=O)Nc2ccncc2)CC1 [Y-27632]
- tube formation (MP-mediated) (HUVECs [1]; [5]): significant decrease
- chemotaxis (MP-mediated) (HUVECs [2]; [5]): significant decrease

Compound: Methyl-β-cyclodextrin
- MPs internalization into the endothelial cells (HUVECs [3]): marked reduction

Compound: Ac-DEVD-CHO [selective caspase 3 inhibitor]
- formation and release of MPs [4]: drastically reduced
